Measurements: patent publication EP0908457B1, “3-(1,2-benzisothiazol- and isoxazol-5-Y1)-2,4(1H,3H)-pyrimidinedione or thione and 3-(1,2-benzisothiazol- and isoxazol-5-y1)-4(3H)-pyrimidinone or thione herbicidal agents” (BASF AKTIENGESELLSCHAFT, priority 1997, dated 1999)

Legend:
[1] = system: Echinochloa oryzoides (Ard.) Fritsch.; experiment: Preemergence weed control under flooded paddy conditions, ECHORC (Watergrass (Calif.)); assay type: in vivo; settings: flooded paddy, rated three to four weeks after treatment; for herbicidal effect rating, ECHORC: preemergence weeds; for ECHORC herbicidal effect rating: preemergence; on herbicidal effect rating, ECHORC: meaning of each grade not given here
Cyperus iria = experiment: Preemergence weed control under flooded paddy conditions, CYPIR (Rice Flatsedge); assay type: in vivo; settings: flooded paddy, rated three to four weeks after treatment; for herbicidal effect rating, CYPIR: preemergence weeds; for CYPIR herbicidal effect rating: preemergence; on herbicidal effect rating, CYPIR: meaning of each grade not given here
[2] = system: Cyperus serotinus, Rottb.; experiment: Preemergence weed control under flooded paddy conditions, CYPSE (Flatsedge); assay type: in vivo; settings: rated three to four weeks after treatment; for herbicidal effect rating, CYPSE: preemergence weeds; for CYPSE herbicidal effect rating: preemergence; on herbicidal effect rating, CYPSE: meaning of each grade not given here
[3] = system: Monochoria vaginalis, Presl.; experiment: Preemergence weed control under flooded paddy conditions, MOOVA (Monochoria); assay type: in vivo; settings: flooded paddy, rated three to four weeks after treatment; for herbicidal effect rating, MOOVA: preemergence weeds; for MOOVA herbicidal effect rating: preemergence; on herbicidal effect rating, MOOVA: meaning of each grade not given here
Sagittaria pygmaea, L. = experiment: Preemergence weed control under flooded paddy conditions, SAGPY (Arrowhead (Pygmaea)); assay type: in vivo; settings: flooded paddy, rated three to four weeks after treatment; for herbicidal effect rating, SAGPY: preemergence weeds; for SAGPY herbicidal effect rating: preemergence; on herbicidal effect rating, SAGPY: meaning of each grade not given here
[4] = system: Oryza sativa, (L.) Tebonnet; experiment: Rice tolerance to post-transplant applications under flooded paddy conditions (Example 187), ORYSAT (Rice, Tebonnet); settings: rated three to four weeks after treatment

SMILES: C#CCNC(=O)COc1ccc(C)cc1-c1noc2ccc(-n3c(=O)cc(C(F)(F)F)n(C)c3=O)cc12 [Example 193, 2-{{2-{5-[3,6-Dihydro-3-methyl-2,6-dioxo-4-(trifluoromethyl)-1(2H)-pyrimidinyl]-1,2-benzisoxazol-3-yl}-p-tolyl}oxy}-N-(2-propynyl)acetamide]
- herbicidal effect rating, ECHORC ([1]; 0.0313 kg/ha): 0.0
- herbicidal effect rating, ECHORC ([1]; 0.0625 kg/ha): 0.0
- herbicidal effect rating, ECHORC ([1]; 0.1250 kg/ha): 0.0
- herbicidal effect rating, ECHORC ([1]; 0.2500 kg/ha): 0.0
- herbicidal effect rating, CYPIR (Cyperus iria; 0.0313 kg/ha): 0.0
- herbicidal effect rating, CYPIR (Cyperus iria; 0.0625 kg/ha): 0.0
- herbicidal effect rating, CYPIR (Cyperus iria; 0.1250 kg/ha): 0.0
- herbicidal effect rating, CYPIR (Cyperus iria; 0.2500 kg/ha): 0.0
- herbicidal effect rating, CYPSE ([2]; 0.0313 kg/ha): 0.0
- herbicidal effect rating, CYPSE ([2]; 0.0625 kg/ha): 0.0
- herbicidal effect rating, CYPSE ([2]; 0.1250 kg/ha): 0.0
- herbicidal effect rating, CYPSE ([2]; 0.2500 kg/ha): 0.0
- herbicidal effect rating, MOOVA ([3]; 0.0313 kg/ha): 2.0
- herbicidal effect rating, MOOVA ([3]; 0.0625 kg/ha): 4.0
- herbicidal effect rating, MOOVA ([3]; 0.1250 kg/ha): 9.0
- herbicidal effect rating, MOOVA ([3]; 0.2500 kg/ha): 9.0
- herbicidal effect rating, SAGPY (Sagittaria pygmaea, L.; 0.0313 kg/ha): 0.0
- herbicidal effect rating, SAGPY (Sagittaria pygmaea, L.; 0.0625 kg/ha): 0.0
- herbicidal effect rating, SAGPY (Sagittaria pygmaea, L.; 0.1250 kg/ha): 0.0
- herbicidal effect rating, SAGPY (Sagittaria pygmaea, L.; 0.2500 kg/ha): 0.0
- herbicidal effect rating, ORYSAT (rice tolerance) ([4]; 0.0313 kg/ha): 0.0
- herbicidal effect rating, ORYSAT (rice tolerance) ([4]; 0.0625 kg/ha): 0.0
- herbicidal effect rating, ORYSAT (rice tolerance) ([4]; 0.1250 kg/ha): 0.0
- herbicidal effect rating, ORYSAT (rice tolerance) ([4]; 0.2500 kg/ha): 1.0

SMILES: C=C(C)C1CC=C(COCc2nsc3ccc(-n4c(=O)ccn(C)c4=O)cc23)CC1 (stereo not shown) [Example 211, 1-Methyl-3-{3-{{[4-(1-methylvinyl)-1-cyclohexen-1-yl]methoxy}methyl}-1,2-benzisothiazol-5-yl}-2,4(1H,3H)-pyrimidinedione]
- ECHORC herbicidal effect rating ([1]; Rate 0.0313 kg/ha): 2.0
- ECHORC herbicidal effect rating ([1]; Rate 0.0625 kg/ha): 4.0
- ECHORC herbicidal effect rating ([1]; Rate 0.1250 kg/ha): 7.0
- ECHORC herbicidal effect rating ([1]; Rate 0.2500 kg/ha): 9.0
- CYPIR herbicidal effect rating (Cyperus iria; Rate 0.0313 kg/ha): 0.0
- CYPIR herbicidal effect rating (Cyperus iria; Rate 0.0625 kg/ha): 0.0
- CYPIR herbicidal effect rating (Cyperus iria; Rate 0.1250 kg/ha): 4.0
- CYPIR herbicidal effect rating (Cyperus iria; Rate 0.2500 kg/ha): 4.0
- CYPSE herbicidal effect rating ([2]; Rate 0.0313 kg/ha): 0.0
- CYPSE herbicidal effect rating ([2]; Rate 0.0625 kg/ha): 0.0
- CYPSE herbicidal effect rating ([2]; Rate 0.1250 kg/ha): 0.0
- CYPSE herbicidal effect rating ([2]; Rate 0.2500 kg/ha): 0.0
- MOOVA herbicidal effect rating ([3]; Rate 0.0313 kg/ha): 9.0
- MOOVA herbicidal effect rating ([3]; Rate 0.0625 kg/ha): 9.0
- MOOVA herbicidal effect rating ([3]; Rate 0.1250 kg/ha): 9.0
- MOOVA herbicidal effect rating ([3]; Rate 0.2500 kg/ha): 9.0
- SAGPY herbicidal effect rating (Sagittaria pygmaea, L.; Rate 0.0313 kg/ha): 0.0
- SAGPY herbicidal effect rating (Sagittaria pygmaea, L.; Rate 0.0625 kg/ha): 0.0
- SAGPY herbicidal effect rating (Sagittaria pygmaea, L.; Rate 0.1250 kg/ha): 0.0
- SAGPY herbicidal effect rating (Sagittaria pygmaea, L.; Rate 0.2500 kg/ha): 0.0
- ORYSAT herbicidal effect rating ([4]; Rate 0.0313 kg/ha): 2.0
- ORYSAT herbicidal effect rating ([4]; Rate 0.0625 kg/ha): 2.0
- ORYSAT herbicidal effect rating ([4]; Rate 0.1250 kg/ha): 2.0
- ORYSAT herbicidal effect rating ([4]; Rate 0.2500 kg/ha): 3.0

SMILES: COC(=O)COc1ccc(-c2nsc3ccc(-n4c(=O)cc(C(F)(F)F)n(C)c4=O)cc23)cc1 [Example 257, Acetic acid, {p-{5-[3,6-dihydro-3-methyl-2,6-dioxo-4-(trifluoromethyl)-1(2H)-pyrimidinyl)-1,2-benzisothiazol-3-yl}phenoxy}-, methyl ester]
- ECHORC herbicidal effect rating ([1]; Rate 0.0320 kg/ha): 0.0
- ECHORC herbicidal effect rating ([1]; Rate 0.0620 kg/ha): 0.0
- ECHORC herbicidal effect rating ([1]; Rate 0.1250 kg/ha): 0.0
- ECHORC herbicidal effect rating ([1]; Rate 0.2500 kg/ha): 0.0
- CYPIR herbicidal effect rating (Cyperus iria; Rate 0.0320 kg/ha): 0.0
- CYPIR herbicidal effect rating (Cyperus iria; Rate 0.0620 kg/ha): 2.0
- CYPIR herbicidal effect rating (Cyperus iria; Rate 0.1250 kg/ha): 4.0
- CYPIR herbicidal effect rating (Cyperus iria; Rate 0.2500 kg/ha): 6.0
- CYPSE herbicidal effect rating ([2]; Rate 0.0320 kg/ha): 0.0
- CYPSE herbicidal effect rating ([2]; Rate 0.0620 kg/ha): 0.0
- MOOVA herbicidal effect rating ([3]; Rate 0.0320 kg/ha): 8.0
- MOOVA herbicidal effect rating ([3]; Rate 0.0620 kg/ha): 9.0
- MOOVA herbicidal effect rating ([3]; Rate 0.1250 kg/ha): 9.0
- MOOVA herbicidal effect rating ([3]; Rate 0.2500 kg/ha): 9.0
- SAGPY herbicidal effect rating (Sagittaria pygmaea, L.; Rate 0.0320 kg/ha): 0.0
- SAGPY herbicidal effect rating (Sagittaria pygmaea, L.; Rate 0.0620 kg/ha): 0.0
- SAGPY herbicidal effect rating (Sagittaria pygmaea, L.; Rate 0.1250 kg/ha): 0.0
- SAGPY herbicidal effect rating (Sagittaria pygmaea, L.; Rate 0.2500 kg/ha): 0.0
- ORYSAT herbicidal effect rating ([4]; Rate 0.0320 kg/ha): 0.0
- ORYSAT herbicidal effect rating ([4]; Rate 0.0620 kg/ha): 0.0
- ORYSAT herbicidal effect rating ([4]; Rate 0.1250 kg/ha): 1.0
- ORYSAT herbicidal effect rating ([4]; Rate 0.2500 kg/ha): 2.0
